{
  "source": "patent EP1200406B1",
  "about": "“CYCLIC AMIDES AND IMIDES HAVING SELECTIVE ANTAGONIST ACTIVITY AT ALPHA-1D ADRENERGIC RECEPTOR” (RECORDATI INDUSTRIA CHIMICA E FARMACEUTICA S.p.a., priority 1999, dated 2001)",
  "tested_on": "conscious rats with partial bladder-outlet obstruction",
  "assay": "Cystometry in conscious rats with infravesical outflow obstruction by partial urethral ligature",
  "type": "in vivo, Female Sprague Dawley rats",
  "details": "0.3 mg/kg i.v.",
  "method": "Effects on cystometric parameters in conscious rats with […] outflow obstruction by partial urethral ligature. Female Sprague Dawley rats of 225-275 g body weight [Crl: CD(SD)BR, from Charles River Italia, Calco, Como] were used. The animals were housed with free access to food and water and maintained on a forced 12 hour alternating light dark cycle at 22-24°C for at least one week, except during experiment performance. In order to obtain a partial obstruction of the urethra, the method previously reported by Malmgren (Malmgren A. et al., J. UroL 137, 1291-1294, 1987; Neurourol. […] Pharmacol. […] The rats were anaesthetised with intraperitoneal (i.p.) administration of 3 ml/kg of Equithensin solution (pentobarbital 1.215 g, chloral hydrate 5.312 g, magnesium sulphate 2.657 g, ethanol 12.5 ml, propylene glycol 49.5 ml, distilled water to 125 ml of final volume) and then the bladder and proximal urethra were exposed via an abdominal midline incision. A silk ligature was placed around the urethra and tied in the presence of an intraluminally placed indwelling polyethylene cannula with an outside diameter of 1.22 mm. After removing the polyethylene cannula, the abdominal wall was sutured and then antibiotic medication (penicillin G 200000 I.U./kg and streptomycin 260 mg/kg i.p.) was performed. After three weeks of obstruction the animals were prepared for cystometry. The animals, anesthetized as reported above, were placed in a supine position and a midline incision was made in the shaved and cleaned abdominal wall. The urinary bladder was exposed and gently freed from adhering tissues, emptied and then cannulated, via an incision at the dome, with a polyethylene cannula (0.58 mm inside diameter and 0.96 mm outside diameter), which was permanently sutured with silk thread. For intravenous bolus injection a similar polyethylene tubing filled with physiological saline containing sodium heparin (40 I.U./ml) was inserted into the jugular vein. The cannulae were exteriorised through a subcutaneous tunnel in the retroscapular area, where they were connected with a plastic adapter, in order to avoid the risk of removal by the animal. Two days after bladder catheter implantation, the animals, fasted overnight, were placed in Bollman's cages or in particular plastic cages which allowed some lateral and back and forth movement of the rats, allowing measurements of micturition volume (MV). After a stabilisation period of 20 minutes, the free tip of the bladder cannula was connected to a pressure transducer and to a peristaltic pump for a continuous infusion of warm saline solution (37° C), into the urinary bladder. In order to shorten the time-period of saline infusion necessary to provoke micturition in the obstructed rats, a filling rate of the bladder of 10 ml/h was chosen. During infusion of saline into the bladder, the intravesical pressure signal and urine volume micturated were continuously recorded on chart polygraph. […] BVC (in ml) was defined as the volume of saline infused into the bladder from the start of the infusion to micturition. […] MV (in ml), defined as the volume of expelled urine during each single micturition, was recorded by means of a force displacement transducer connected to the polygraph and measuring the urine collected in a small reservoir placed under the cage. Basal values of the parameters above reported were evaluated as the mean of the values obtained in two complete and reproducible cystometrograms before treatment (time 0). Then the animals were treated intravenously by bolus injection with the test compound under continuous infusion of saline into the bladder. The parameter changes after compound injection (first cystometrogram and those recorded approximately after 30 and 60 minutes) were compared with the values recorded before injection (basal values).",
  "data": [
    {"smiles": "O=C1CC2(CCCC2)CC(=O)N1CCN1CCN(c2cc(Cl)ccc2Cl)CC1", "note": "[Example 1, 8-{2-[4-(2,5-Dichlorophenyl)-1-piperazinyl]-ethyl}-8-azaspiro[4.5]decane-7,9-dione]", "values": [
      {"measurement": "BVC mean values, change", "result": "20-30%"},
      {"measurement": "changes in MP values", "result": "no significant changes"},
      {"measurement": "BVC (bladder volume capacity), % changes vs basal values", "setting": "30 minutes", "result": 22, "unit": "%"},
      {"measurement": "MP (micturition pressure), % changes vs basal values", "setting": "30 minutes", "result": -7, "unit": "%"},
      {"measurement": "MV (micturition volume), % changes vs basal values", "setting": "30 minutes", "result": 42, "unit": "%"},
      {"measurement": "NMC – A (non-micturition contractions, amplitude), % changes vs basal values", "setting": "30 minutes", "result": -33, "unit": "%"},
      {"measurement": "NMC – F (non-micturition contractions, frequency), % changes vs basal values", "setting": "30 minutes", "result": -38, "unit": "%"},
      {"measurement": "BVC (bladder volume capacity), % changes vs basal values", "setting": "60 minutes", "result": 30, "unit": "%"},
      {"measurement": "MP (micturition pressure), % changes vs basal values", "setting": "60 minutes", "result": -6, "unit": "%"},
      {"measurement": "MV (micturition volume), % changes vs basal values", "setting": "60 minutes", "result": 28, "unit": "%"},
      {"measurement": "NMC – A (non-micturition contractions, amplitude), % changes vs basal values", "setting": "60 minutes", "result": -38, "unit": "%"},
      {"measurement": "NMC – F (non-micturition contractions, frequency), % changes vs basal values", "setting": "60 minutes", "result": -23, "unit": "%"},
      {"measurement": "BVC (bladder volume capacity), % changes vs basal values", "setting": "First cystometrogram", "result": 26, "unit": "%"},
      {"measurement": "MP (micturition pressure), % changes vs basal values", "setting": "First cystometrogram", "result": -2, "unit": "%"},
      {"measurement": "MV (micturition volume), % changes vs basal values", "setting": "First cystometrogram", "result": 35, "unit": "%"},
      {"measurement": "NMC – A (non-micturition contractions, amplitude), % changes vs basal values", "setting": "First cystometrogram", "result": -35, "unit": "%"},
      {"measurement": "NMC – F (non-micturition contractions, frequency), % changes vs basal values", "setting": "First cystometrogram", "result": -24, "unit": "%"},
      {"measurement": "frequency and amplitude of the non-voiding contractions", "setting": "immediately after the injections", "result": "rapid decrease"}
    ]}
  ]
}
